# Laboratory results reported in ChEMBL document CHEMBL1129317, “Novel selective and partial agonists of 5-HT3 receptors. Part 1. Synthesis and biological evaluation of piperazinopyrrolothienopyrazines” (J Med Chem, 1996).
# Columns and labels:
# [1] = biological target: 5-hydroxytryptamine receptor 1D (Sus scrofa, UniProt P79400); assay: Binding affinity for 5-hydroxytryptamine 1D receptor
# [2] = biological target: T1, Serotonin 3 (5-HT3) receptor (Rattus norvegicus) (UniProt P35563+Q9JJ16); assay: Agonistic activity of compound towards 5-hydroxytryptamine 3 receptor in Von Bezold-Jarisch Reflex in rats at 60 (ug/kg), evaluated as change in heart rate; assay type: functional
# [3] = biological target: T1, Serotonin 3 (5-HT3) receptor (Rattus norvegicus); assay: Agonistic activity of compound towards 5-hydroxytryptamine 3 receptor in Von Bezold-Jarisch Reflex in rats at 120 (ug/kg), evaluated as change in heart rate; assay type: functional
# [4] = biological target: T2, Serotonin 3 (5-HT3) receptor (Rattus norvegicus, UniProt P35563+Q9JJ16); assay: Binding affinity towards 5-hydroxytryptamine 3 receptor; assay type: protein-complex assay
# T2 sequence (P35563 whole entry): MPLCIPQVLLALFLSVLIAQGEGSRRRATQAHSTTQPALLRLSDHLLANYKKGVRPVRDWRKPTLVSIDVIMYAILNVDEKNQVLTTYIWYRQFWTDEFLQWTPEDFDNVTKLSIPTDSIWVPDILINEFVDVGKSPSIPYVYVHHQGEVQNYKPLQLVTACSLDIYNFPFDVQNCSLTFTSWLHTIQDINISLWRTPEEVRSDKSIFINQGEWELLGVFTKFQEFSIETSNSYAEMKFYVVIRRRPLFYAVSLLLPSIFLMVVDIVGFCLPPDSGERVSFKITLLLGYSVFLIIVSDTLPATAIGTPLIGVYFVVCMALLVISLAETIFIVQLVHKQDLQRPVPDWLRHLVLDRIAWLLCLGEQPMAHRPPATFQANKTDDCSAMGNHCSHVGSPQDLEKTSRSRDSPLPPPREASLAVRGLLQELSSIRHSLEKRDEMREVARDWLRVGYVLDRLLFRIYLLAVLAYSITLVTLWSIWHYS
# T2 sequence (Q9JJ16 whole entry): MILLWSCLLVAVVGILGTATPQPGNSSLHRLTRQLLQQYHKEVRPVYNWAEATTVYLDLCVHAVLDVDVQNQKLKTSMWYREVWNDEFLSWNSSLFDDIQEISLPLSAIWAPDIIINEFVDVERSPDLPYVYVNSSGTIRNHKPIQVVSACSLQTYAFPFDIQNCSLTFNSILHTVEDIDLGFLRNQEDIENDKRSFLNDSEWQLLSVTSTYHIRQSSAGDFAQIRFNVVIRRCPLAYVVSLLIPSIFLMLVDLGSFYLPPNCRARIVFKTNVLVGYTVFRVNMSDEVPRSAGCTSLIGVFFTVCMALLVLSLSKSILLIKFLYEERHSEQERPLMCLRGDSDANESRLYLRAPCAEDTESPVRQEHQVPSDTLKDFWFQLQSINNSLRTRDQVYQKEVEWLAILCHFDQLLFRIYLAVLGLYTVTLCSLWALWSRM
# [5] = biological target: Adrenergic receptor alpha-2 (Homo sapiens) (UniProt P08913+P18825+P18089); assay: Inhibitory activity against Alpha-2 adrenergic receptor using [3H]RX-821002 at 10e-5 (M); assay type: protein assay
# [6] = biological target: Beta-1 adrenergic receptor (Homo sapiens) (UniProt P08588); assay: Inhibitory activity against Beta-1 adrenergic receptor using [3H]CGP-12177 at 10e-5 (M)
# [7] = Inhibition of [3H]PK11195 binding to peripheral Benzodiazepine receptor at 10e-5 M
# [8] = biological target: Beta-2 adrenergic receptor (Homo sapiens) (UniProt P07550); assay: Inhibitory activity against Beta-2 adrenergic receptor using [3H]CGP-12177 at […] (M)
# [9] = biological target: Angiotensin II receptor (Homo sapiens) (UniProt P30556+P50052); assay: Inhibitory activity against Angiotensin II receptor using [3H]Angiotensin II at […] (M); assay type: protein assay
# [10] = biological target: Gastrin/cholecystokinin type B receptor (Homo sapiens) (UniProt P32239); assay: Inhibitory activity against Cholecystokinin type B receptor using [3H]CCK-8 at […] (M)
# [11] = biological target: GABA-A receptor; anion channel (Homo sapiens) (UniProt P14867+P47870+P18507+P28472+P48169+Q99928+Q9UN88+P34903+O00591+O14764+Q8N1C3+P18505+P78334+P47869+P31644+Q16445); assay: Inhibitory activity against Gamma-aminobutyric acid A (GABA-A) receptor using [3H]-muscimol at 10e-5 M; assay type: protein-complex assay
# [12] = biological target: Glutamate receptor ionotropic kainate (Homo sapiens) (UniProt P39086+Q16478+Q16099+Q13002+Q13003); assay: Inhibitory activity against Ionotropic glutamate receptor kainate using [3H]- Kainate at […] (M); assay type: protein-complex assay
# [13] = biological target: Muscarinic acetylcholine receptor M1 (Homo sapiens) (UniProt P11229); assay: Inhibitory activity against Muscarinic acetylcholine receptor M1 using [3H]pirenzepine at […] (M)
# NG108-15 = assay: In vitro effective concentration against [14C]guanidinium uptake into NG 108-15 cells; assay type: functional, cell-based; details: Murinae
# [14] = biological target: Muscarinic acetylcholine receptor M3 (Homo sapiens) (UniProt P20309); assay: Inhibitory activity against Muscarinic acetylcholine receptor M3 using [3H]NMS at […] (M)
# [15] = biological target: Kappa-type opioid receptor (Homo sapiens) (UniProt P41145); assay: Inhibitory activity against Opioid receptor kappa 1 using [3H]U-69593 at 10e-5 (M)
# [16] = biological target: Mu-type opioid receptor (Homo sapiens) (UniProt P35372); assay: Inhibitory activity against Opioid receptor mu 1 using [3H]DAMGO at 10e-5 (M)
# [17] = biological target: Platelet-activating factor receptor (Homo sapiens) (UniProt P25105); assay: Inhibitory activity against Platelet activating factor receptor using [3H]PAF at […] (M)
# [18] = biological target: Glutamate receptor ionotropic AMPA (Homo sapiens) (UniProt P48058+P42263+P42262+P42261); assay: Inhibitory activity against Quisqualate receptor using [3H]AMPA at […] (M); assay type: protein-complex assay
# [19] = biological target: Glutamate [NMDA] receptor (Homo sapiens) (UniProt Q05586+Q12879+Q13224+O15399+O60391+Q14957+Q8TCU5); assay: Inhibitory activity against Phencyclidine receptor using [3H]-TCP at […] (M); assay type: protein-complex assay
# [20] = biological target: Thromboxane A2 receptor (Homo sapiens) (UniProt P21731); assay: Inhibitory activity against Thromboxane A2 using [3H]SG-29548 at 10e-5 (M)
# [21] = biological target: Tumor necrosis factor receptor superfamily member 1A (Homo sapiens) (UniProt P19438); assay: Inhibitory activity against TNF using [125]TNF at 10e-5 (M)
# [22] = biological target: 5-hydroxytryptamine receptor 1B (Rattus norvegicus, UniProt P28564); assay: Binding affinity for 5-hydroxytryptamine 1B receptor
# [23] = biological target: 5-hydroxytryptamine receptor 2A (Bos taurus, UniProt Q75Z89); assay: Binding affinity towards 5-hydroxytryptamine 2A receptor
# [24] = biological target: Leukotriene B4 receptor 1 (Homo sapiens) (UniProt Q15722); assay: Inhibitory activity against Leukotriene B4 receptor using [3H]- LTB4 at […] (M)
# Sequence of Leukotriene B4 receptor 1 (Homo sapiens) (Q15722 whole entry): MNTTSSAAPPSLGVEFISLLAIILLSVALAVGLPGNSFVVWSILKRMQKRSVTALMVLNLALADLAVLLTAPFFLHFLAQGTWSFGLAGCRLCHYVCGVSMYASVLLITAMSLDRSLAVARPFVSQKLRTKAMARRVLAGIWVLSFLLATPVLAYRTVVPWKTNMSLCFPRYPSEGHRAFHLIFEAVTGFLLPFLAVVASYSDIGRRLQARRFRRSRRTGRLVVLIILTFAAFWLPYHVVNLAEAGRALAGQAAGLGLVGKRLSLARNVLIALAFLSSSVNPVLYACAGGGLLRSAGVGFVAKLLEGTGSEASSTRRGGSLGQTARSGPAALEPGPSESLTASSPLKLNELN
# Sequence of Kappa-type opioid receptor (Homo sapiens) (P41145 whole entry): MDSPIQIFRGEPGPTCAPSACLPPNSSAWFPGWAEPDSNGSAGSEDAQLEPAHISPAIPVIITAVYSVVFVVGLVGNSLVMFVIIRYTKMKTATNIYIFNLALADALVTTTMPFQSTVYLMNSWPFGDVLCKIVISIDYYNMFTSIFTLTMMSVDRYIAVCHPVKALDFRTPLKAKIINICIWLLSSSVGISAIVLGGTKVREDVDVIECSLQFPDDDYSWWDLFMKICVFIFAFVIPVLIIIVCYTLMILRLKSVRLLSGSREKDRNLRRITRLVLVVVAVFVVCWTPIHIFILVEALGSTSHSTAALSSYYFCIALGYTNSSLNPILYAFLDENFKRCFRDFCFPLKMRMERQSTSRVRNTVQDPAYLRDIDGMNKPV
# Sequence of Tumor necrosis factor receptor superfamily member 1A (Homo sapiens) (P19438 whole entry): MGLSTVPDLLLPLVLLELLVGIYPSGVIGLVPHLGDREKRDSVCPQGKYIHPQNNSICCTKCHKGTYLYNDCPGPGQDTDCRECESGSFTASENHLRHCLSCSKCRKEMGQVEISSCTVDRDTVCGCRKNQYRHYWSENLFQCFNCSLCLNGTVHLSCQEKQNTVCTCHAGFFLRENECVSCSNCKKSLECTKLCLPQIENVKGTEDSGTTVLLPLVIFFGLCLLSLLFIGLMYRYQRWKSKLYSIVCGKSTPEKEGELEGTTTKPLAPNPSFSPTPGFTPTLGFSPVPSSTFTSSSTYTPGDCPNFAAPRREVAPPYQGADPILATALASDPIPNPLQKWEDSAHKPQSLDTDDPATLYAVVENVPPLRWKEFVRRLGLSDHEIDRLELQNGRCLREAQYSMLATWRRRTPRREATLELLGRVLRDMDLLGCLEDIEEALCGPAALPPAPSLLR
# Sequence of 5-hydroxytryptamine receptor 1D (P79400 whole entry): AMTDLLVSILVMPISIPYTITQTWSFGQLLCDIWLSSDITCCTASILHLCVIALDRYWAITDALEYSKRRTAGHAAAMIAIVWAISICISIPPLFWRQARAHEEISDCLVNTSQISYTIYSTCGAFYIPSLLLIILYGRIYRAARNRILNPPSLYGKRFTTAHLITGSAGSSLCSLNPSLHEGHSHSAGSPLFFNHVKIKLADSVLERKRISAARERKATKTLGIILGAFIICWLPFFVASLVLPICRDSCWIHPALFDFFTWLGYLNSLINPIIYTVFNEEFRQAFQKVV
# Sequence of Muscarinic acetylcholine receptor M3 (Homo sapiens) (P20309 whole entry, looked up): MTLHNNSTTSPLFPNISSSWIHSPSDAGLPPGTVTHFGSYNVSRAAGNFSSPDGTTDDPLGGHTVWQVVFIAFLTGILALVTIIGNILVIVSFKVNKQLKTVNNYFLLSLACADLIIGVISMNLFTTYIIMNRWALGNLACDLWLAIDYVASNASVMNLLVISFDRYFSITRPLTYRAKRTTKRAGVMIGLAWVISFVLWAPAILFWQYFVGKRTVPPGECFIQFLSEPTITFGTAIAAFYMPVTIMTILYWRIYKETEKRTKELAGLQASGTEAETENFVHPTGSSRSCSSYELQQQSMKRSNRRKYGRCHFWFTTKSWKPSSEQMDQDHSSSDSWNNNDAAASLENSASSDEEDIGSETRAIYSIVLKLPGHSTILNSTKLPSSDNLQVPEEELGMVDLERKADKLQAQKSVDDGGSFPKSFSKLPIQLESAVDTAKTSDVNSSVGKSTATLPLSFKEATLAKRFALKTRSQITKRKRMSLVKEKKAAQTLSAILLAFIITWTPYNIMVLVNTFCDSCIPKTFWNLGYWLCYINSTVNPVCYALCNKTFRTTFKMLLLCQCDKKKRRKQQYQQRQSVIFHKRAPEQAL
# Sequence of Beta-2 adrenergic receptor (Homo sapiens) (P07550 whole entry, looked up): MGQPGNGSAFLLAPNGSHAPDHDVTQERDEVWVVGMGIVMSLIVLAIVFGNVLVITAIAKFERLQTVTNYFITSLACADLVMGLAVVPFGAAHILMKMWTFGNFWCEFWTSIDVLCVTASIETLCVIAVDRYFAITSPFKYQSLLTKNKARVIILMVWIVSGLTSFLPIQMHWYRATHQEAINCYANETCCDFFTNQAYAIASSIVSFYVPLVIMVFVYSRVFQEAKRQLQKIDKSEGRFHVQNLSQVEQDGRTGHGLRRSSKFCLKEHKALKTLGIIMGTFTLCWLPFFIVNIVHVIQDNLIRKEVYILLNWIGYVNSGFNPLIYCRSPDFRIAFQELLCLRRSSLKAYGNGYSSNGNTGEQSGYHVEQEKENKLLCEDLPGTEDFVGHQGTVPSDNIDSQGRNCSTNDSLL
# Sequence of 5-hydroxytryptamine receptor 1B (P28564 whole entry): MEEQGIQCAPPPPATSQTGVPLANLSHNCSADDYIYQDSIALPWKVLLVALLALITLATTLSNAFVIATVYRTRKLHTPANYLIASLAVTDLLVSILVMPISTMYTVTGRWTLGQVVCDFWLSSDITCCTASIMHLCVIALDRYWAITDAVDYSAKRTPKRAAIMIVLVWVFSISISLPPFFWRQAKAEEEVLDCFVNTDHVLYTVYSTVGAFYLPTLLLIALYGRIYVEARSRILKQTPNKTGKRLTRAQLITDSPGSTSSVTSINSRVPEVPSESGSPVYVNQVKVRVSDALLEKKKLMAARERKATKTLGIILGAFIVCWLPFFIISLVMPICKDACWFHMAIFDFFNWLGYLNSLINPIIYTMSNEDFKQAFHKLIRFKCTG
# Sequence of Gastrin/cholecystokinin type B receptor (Homo sapiens) (P32239 whole entry): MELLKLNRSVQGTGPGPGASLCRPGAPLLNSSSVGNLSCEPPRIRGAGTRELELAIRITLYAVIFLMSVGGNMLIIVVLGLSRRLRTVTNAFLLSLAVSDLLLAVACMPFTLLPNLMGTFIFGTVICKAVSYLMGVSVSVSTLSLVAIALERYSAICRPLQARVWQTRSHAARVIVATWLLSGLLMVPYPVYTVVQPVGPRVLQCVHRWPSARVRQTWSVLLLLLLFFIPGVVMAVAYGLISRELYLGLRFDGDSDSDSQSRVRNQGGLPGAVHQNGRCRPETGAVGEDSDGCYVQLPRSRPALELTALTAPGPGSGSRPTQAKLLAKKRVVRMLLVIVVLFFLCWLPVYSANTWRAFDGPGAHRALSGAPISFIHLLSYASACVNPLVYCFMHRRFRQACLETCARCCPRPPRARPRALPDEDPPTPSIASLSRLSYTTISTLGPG
# Sequence of Muscarinic acetylcholine receptor M1 (Homo sapiens) (P11229 whole entry): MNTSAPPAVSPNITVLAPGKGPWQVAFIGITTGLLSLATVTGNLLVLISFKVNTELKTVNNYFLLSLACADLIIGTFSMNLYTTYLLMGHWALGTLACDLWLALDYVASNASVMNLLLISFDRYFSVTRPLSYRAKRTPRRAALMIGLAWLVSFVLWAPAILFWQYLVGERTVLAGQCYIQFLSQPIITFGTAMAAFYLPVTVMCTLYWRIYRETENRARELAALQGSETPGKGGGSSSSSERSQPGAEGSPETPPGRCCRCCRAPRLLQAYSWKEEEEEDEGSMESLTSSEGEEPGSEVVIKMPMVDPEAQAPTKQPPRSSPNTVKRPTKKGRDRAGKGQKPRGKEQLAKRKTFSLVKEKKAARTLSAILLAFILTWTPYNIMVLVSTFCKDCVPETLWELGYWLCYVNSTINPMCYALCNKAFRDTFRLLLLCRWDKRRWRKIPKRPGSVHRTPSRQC
# Sequence of Beta-1 adrenergic receptor (Homo sapiens) (P08588 whole entry, looked up): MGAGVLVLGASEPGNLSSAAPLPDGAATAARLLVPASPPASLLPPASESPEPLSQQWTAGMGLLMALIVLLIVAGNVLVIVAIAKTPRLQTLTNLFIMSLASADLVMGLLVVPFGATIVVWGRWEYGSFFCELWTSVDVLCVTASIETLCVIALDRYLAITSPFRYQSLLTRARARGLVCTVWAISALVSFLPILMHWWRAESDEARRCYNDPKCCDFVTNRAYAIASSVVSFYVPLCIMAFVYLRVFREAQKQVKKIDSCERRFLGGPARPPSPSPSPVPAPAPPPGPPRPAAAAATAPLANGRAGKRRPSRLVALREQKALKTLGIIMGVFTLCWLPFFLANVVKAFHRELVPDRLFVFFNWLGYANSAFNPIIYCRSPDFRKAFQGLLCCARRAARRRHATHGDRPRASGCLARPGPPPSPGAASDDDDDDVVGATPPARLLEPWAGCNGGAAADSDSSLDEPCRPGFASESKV
# Sequence of Platelet-activating factor receptor (Homo sapiens) (P25105 whole entry): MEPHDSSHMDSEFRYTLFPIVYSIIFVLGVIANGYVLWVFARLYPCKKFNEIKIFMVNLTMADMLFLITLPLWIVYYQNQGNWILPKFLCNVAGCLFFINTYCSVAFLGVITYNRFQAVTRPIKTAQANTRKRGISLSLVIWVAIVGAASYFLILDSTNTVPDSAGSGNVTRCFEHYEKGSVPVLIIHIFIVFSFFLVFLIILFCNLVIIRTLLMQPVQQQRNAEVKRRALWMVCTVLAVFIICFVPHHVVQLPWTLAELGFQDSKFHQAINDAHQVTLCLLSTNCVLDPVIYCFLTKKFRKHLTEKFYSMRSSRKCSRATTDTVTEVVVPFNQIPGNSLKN
# Sequence of Thromboxane A2 receptor (Homo sapiens) (P21731 whole entry): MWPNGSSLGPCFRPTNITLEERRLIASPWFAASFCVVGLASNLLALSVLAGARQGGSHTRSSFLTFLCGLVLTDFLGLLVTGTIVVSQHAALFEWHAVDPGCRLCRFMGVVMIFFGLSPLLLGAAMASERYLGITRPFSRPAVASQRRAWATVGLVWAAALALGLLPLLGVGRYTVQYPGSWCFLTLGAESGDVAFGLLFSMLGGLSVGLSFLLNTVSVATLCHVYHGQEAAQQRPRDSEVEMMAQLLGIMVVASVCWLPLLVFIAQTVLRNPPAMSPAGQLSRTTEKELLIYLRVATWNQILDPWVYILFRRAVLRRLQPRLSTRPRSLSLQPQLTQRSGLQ
smiles,measurement,setting,value
c1ccc(CN2CCN(c3nc4ccsc4n4cccc34)CC2)cc1,IC50,[1],14100 nM
same,Change,[2],0%
same,Change,[3],42%
same,IC50,[4],1.41 nM
same,inhibition,[5],29%
same,inhibition,[6],21%
same,inhibition,[7],34%
same,inhibition,[8],19%
same,inhibition,[9],18%
same,inhibition,[10],18%
same,inhibition,[11],31%
same,inhibition,[12],12%
same,inhibition,[13],29%
same,EC50,NG108-15,10 nM
same,inhibition,[14],20%
same,inhibition,[15],55%
same,inhibition,[16],29%
same,inhibition,[17],2%
same,inhibition,[18],24%
same,inhibition,[19],10%
same,inhibition,[20],32%
same,inhibition,[21],7%
same,IC50,[22],1020 nM
same,IC50,[23],4370 nM
same,inhibition,[24],17%
